# Measurements reported in patent US20250346585A1 (Alexion Pharmaceuticals, Inc., priority 2022, published 2025).
# pIC50: −log10 of the molar value. Read-outs that look alike come from different tables or passages of the source.
# Molecular target: Human complement C1s enzyme (Homo sapiens (Human), UniProt P09871)
# Experiment: Human C1s enzyme assay
# Type: biochemical
# Settings: read-out: IC50 (Stars)
# In short: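 Purified serum-derived human C1s (1.16 nM final) preincubated 5 min at room temperature with compound in 50 mM Tris, 1 M NaCl, pH 7.5. Z-L-Lys-SBzl thioester substrate and DTNB added (100 μM each, final); A405 read every 30 s for 30 min. IC50 from nonlinear regression of reaction rates against compound concentration.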
# [1] = Human complement C1s enzyme 1.16 nM, substrate Z-L-Lys-SBzl 100 μM, assay of Example 3
# [2] = Human C1s enzyme assay of Example 3
# Sequence of Human complement C1s enzyme (P09871 438-688 limits assumed): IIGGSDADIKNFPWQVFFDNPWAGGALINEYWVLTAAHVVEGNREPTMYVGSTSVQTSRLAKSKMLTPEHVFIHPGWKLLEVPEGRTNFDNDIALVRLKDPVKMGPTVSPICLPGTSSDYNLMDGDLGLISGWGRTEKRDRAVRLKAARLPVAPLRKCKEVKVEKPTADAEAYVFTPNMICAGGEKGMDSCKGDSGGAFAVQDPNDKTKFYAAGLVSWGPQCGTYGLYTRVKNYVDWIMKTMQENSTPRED
# Sequence of Human complement C1s enzyme (P09871 16-437 partner limits assumed): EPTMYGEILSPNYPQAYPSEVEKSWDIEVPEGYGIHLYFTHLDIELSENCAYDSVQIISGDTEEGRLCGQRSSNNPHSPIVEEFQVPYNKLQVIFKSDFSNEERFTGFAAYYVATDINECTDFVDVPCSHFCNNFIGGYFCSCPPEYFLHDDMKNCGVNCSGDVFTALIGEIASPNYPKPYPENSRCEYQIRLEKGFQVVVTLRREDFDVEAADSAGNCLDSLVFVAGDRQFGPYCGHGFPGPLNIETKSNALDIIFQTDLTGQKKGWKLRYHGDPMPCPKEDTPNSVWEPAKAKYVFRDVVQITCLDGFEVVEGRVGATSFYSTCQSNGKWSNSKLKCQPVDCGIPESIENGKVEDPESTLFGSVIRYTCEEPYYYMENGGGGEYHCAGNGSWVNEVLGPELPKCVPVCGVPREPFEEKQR
pIC50 [1],pIC50 [2],SMILES
< 6.00,–,"NCCCC(=O)Nc1csc(CNC(=O)[C@@H]2CC3(CN2C(=O)CNC(=O)c2ccc(Oc4ccc(F)cc4)cc2)OCCO3)c1 [Compound 320, (S)-N-((4-(4-aminobutanamido)thiophen-2-yl)methyl)-7-((4-(4-fluorophenoxy)benzoyl)glycyl)-1,4-dioxa-7-azaspiro[4.4]nonane-8-carboxamide]"
–,> 7.00,"COC[C@H]1C[C@@H](C(=O)N[C@H](C)c2cc(C(=N)N)cs2)N(C(=O)CNC(=O)c2ccc3c(c2)-c2ccccc2C3(F)F)C1 (relative stereo) [Compound 117, (2S,4S*)—N—((R)-1-(4-carbamimidoylthiophen-2-yl)ethyl)-1-((9,9-difluoro-9H-fluorene-3-carbonyl)glycyl)-4-(methoxymethyl)pyrrolidine-2-carboxamide]"
> 7.00,–,C[C@@H](NC(=O)[C@@H]1CC2(CN1C(=O)CN1Cc3cc(-c4ccc(F)cc4F)ccc3C1=O)OCCO2)c1cc(C(=N)N)cs1 [Compound 366]
> 7.00,–,"N=C(N)c1csc(CNC(=O)[C@@H]2CC3(CN2C(=O)CNC(=O)c2ccc(-c4ccc(F)cc4)o2)OCCO3)c1 [Compound 299, (S)—N-((4-carbamimidoylthiophen-2-yl)methyl)-7-((5-(4-fluorophenyl)furan-2-carbonyl)glycyl)-1,4-dioxa-7-azaspiro[4.4]nonane-8-carboxamide]"
–,> 7.00,C[C@@H](NC(=O)[C@@H]1C[C@](F)(CF)CN1C(=O)CNC(=O)c1ccc(Oc2ccc(F)cc2)cc1)c1cc(C(=N)N)cs1 [Compound 13]
> 7.00,–,"Cc1ccccc1[C@H]1C[C@@H](C(=O)N[C@H](C)c2cc(C(=N)N)cs2)N(C(=O)CNC(=O)c2ccc3oc4ccccc4c3c2)C1 [Compound 236, (2S,4R)—N—((R)-1-(4-carbamimidoylthiophen-2-yl)ethyl)-1-((dibenzo[b,d]furan-2-carbonyl)glycyl)-4-(o-tolyl)pyrrolidine-2-carboxamide]"
–,> 7.00,"COC[C@@]1(F)C[C@@H](C(=O)N[C@H](C)c2cc(C(=N)N)cs2)N(C(=O)CNC(=O)c2ccc3c(c2)-c2ccccc2C3(F)F)C1 [Compound 20, (2S,4R)—N—((R)-1-(4-carbamimidoylthiophen-2-yl)ethyl)-1-((9,9-difluoro-9H-fluorene-3-carbonyl)glycyl)-4-fluoro-4-(methoxymethyl)pyrrolidine-2-carboxamide]"
–,< 6.00,"C[C@@H](NC(=O)[C@@H]1CC2(CN1C(=O)CNC(=O)c1ccc3c(c1)-c1ccccc1C3(F)F)OCCO2)c1cc(-c2ncco2)cs1 [Compound 113, (S)-7-((9,9-difluoro-9H-fluorene-3-carbonyl)glycyl)-N—((R)-1-(4-(oxazol-2-yl)thiophen-2-yl)ethyl)-1,4-dioxa-7-azaspiro[4.4]nonane-8-carboxamide]"
–,> 7.00,"Cn1ncc2cc(-c3ccc(C(=O)NCC(=O)N4CC5(C[C@H]4C(=O)NCc4cc(C(=N)N)cs4)OCCO5)cc3)ccc21 [Compound 140, (S)—N-((4-carbamimidoylthiophen-2-yl)methyl)-7-((4-(1-methyl-1H-indazol-5-yl)benzoyl)glycyl)-1,4-dioxa-7-azaspiro[4.4]nonane-8-carboxamide]"
–,> 7.00,"Nc1cnc(-c2csc(CNC(=O)[C@@H]3CC4(CN3C(=O)CNC(=O)c3ccc(Oc5ccc(F)cc5)cc3)OCCO4)c2)s1 [Compound 185, (S)—N-((4-(5-aminothiazol-2-yl)thiophen-2-yl)methyl)-7-((4-(4-fluorophenoxy)benzoyl)glycyl)-1,4-dioxa-7-azaspiro[4.4]nonane-8-carboxamide]"
< 6.00,–,"NC(=O)CCNc1csc(CNC(=O)[C@@H]2CC3(CN2C(=O)CNC(=O)c2ccc(Oc4ccc(F)cc4)cc2)OCCO3)c1 [Compound 310, (S)-N-((4-((3-amino-3-oxopropyl)amino)thiophen-2-yl)methyl)-7-((4-(4-fluorophenoxy)benzoyl)glycyl)-1,4-dioxa-7-azaspiro[4.4]nonane-8-carboxamide]"
